The results in this text go back to patent US9221808B2, “Pyridylthiazole-based ureas as inhibitors of Rho associated protein kinase (ROCK) and methods of use” (H. Lee Moffitt Cancer Center and Research Institute, Inc., priority 2010, dated 2015).

Where “and” joins values, the source holds several entries; their conditions need not be identical. Equal values may be shown once. Where a name gives a salt, the structure may show the parent alone. Read-outs that look alike come from different tables or passages of the source. Some results are limits rather than exact numbers.

For one experiment, the target named is ROCK1 (Homo sapiens (Human), UniProt Q13464). As to the kind of experiment: FRET-based Z'-Lyte kinase assay, ROCK1.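 On all read-outs here: kinase phosphorylates a coumarin/fluorescein-labelled FRET peptide, then a protease cleaves unphosphorylated peptide, progress read as donor to acceptor emission ratio after 400 nm excitation.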 Format: biochemical. The conditions noted are these: for IC50: read-out: IC50 ± SD (μM) ROCK1; for inhibition at 50 µM: read-out: ROCK1 % inhibition @ 50 μM.
ROCK1, sequence (Q13464 whole entry, species assumed): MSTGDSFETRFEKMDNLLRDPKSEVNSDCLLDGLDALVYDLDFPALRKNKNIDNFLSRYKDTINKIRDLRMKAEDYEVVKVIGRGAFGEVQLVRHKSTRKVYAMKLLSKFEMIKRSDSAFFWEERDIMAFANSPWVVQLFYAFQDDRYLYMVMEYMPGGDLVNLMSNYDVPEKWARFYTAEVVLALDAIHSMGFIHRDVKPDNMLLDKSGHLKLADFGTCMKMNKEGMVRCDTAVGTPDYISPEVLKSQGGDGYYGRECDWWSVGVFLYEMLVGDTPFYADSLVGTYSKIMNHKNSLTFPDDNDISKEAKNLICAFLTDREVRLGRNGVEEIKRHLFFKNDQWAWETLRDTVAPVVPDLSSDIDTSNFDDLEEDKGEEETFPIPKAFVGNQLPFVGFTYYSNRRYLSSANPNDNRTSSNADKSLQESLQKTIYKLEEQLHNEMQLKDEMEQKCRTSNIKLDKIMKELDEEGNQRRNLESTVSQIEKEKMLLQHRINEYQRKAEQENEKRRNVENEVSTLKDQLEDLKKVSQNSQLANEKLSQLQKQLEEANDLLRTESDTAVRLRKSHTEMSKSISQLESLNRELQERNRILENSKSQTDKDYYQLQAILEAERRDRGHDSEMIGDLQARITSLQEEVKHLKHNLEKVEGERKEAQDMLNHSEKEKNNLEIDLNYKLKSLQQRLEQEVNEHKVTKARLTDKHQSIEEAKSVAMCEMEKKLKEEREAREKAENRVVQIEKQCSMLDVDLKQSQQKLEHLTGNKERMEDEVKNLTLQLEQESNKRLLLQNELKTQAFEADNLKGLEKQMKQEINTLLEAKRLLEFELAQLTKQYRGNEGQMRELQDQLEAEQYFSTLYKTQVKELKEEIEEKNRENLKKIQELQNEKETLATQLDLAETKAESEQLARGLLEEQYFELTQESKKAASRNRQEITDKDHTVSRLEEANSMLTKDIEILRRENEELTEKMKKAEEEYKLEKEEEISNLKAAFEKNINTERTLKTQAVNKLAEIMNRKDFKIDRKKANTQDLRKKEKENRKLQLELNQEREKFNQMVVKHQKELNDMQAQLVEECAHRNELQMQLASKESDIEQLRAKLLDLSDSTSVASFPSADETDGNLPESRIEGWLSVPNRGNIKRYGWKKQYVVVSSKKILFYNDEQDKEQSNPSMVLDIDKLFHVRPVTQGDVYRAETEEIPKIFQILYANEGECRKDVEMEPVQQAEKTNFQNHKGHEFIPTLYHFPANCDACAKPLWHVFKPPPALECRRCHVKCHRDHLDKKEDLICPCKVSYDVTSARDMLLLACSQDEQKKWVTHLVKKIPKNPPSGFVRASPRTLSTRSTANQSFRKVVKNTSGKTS
For a further experiment, the target named is ROCK2 (Homo sapiens (Human), UniProt O75116). Put plainly: FRET-based Z'-Lyte kinase assay, ROCK2.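 Further: kinase phosphorylates a coumarin/fluorescein FRET peptide, then a protease cleaves unphosphorylated peptide, read as donor/acceptor emission ratio after 400 nm excitation.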 Format: biochemical. Particulars: read-out: IC50 ± SD (μM) ROCK2.
ROCK2, sequence (O75116 whole entry, species assumed): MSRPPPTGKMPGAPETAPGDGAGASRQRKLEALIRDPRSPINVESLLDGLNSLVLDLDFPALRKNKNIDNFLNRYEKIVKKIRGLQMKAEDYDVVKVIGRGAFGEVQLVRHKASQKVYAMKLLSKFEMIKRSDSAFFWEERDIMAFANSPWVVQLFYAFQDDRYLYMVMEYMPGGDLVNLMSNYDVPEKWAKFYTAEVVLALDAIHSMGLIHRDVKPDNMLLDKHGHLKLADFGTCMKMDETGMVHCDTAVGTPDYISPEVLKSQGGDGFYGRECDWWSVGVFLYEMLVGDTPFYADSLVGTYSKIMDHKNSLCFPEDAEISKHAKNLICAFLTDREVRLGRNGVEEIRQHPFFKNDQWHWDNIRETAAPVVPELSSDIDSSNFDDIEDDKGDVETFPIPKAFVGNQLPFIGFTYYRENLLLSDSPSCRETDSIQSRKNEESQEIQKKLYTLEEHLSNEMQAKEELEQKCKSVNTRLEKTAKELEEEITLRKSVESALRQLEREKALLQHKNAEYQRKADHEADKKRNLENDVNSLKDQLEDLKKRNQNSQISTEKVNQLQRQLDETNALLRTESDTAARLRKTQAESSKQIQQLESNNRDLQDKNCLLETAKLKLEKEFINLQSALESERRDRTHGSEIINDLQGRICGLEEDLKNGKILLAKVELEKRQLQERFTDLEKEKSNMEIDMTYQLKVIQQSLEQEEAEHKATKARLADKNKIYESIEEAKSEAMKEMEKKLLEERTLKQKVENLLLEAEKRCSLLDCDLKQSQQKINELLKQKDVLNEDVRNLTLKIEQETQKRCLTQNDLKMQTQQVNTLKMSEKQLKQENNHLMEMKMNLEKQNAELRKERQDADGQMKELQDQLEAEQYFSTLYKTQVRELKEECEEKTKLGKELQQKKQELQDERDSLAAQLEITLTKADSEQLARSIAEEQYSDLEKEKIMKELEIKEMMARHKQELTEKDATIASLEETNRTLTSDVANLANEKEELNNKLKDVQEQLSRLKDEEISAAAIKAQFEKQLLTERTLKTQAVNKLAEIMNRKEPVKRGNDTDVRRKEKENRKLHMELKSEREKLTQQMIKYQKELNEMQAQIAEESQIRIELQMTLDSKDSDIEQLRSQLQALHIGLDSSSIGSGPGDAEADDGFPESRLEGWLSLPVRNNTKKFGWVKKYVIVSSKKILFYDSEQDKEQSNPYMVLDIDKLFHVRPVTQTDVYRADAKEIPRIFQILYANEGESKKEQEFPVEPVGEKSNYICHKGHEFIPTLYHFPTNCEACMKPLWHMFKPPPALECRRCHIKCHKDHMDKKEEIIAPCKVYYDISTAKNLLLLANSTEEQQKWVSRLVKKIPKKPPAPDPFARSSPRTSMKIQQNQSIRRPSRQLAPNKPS

Excerpt for ROCK1: (§1) A) In the primary reaction, the Rho kinases phosphorylates a single serine or threonine residue in a synthetic FRET-peptide. This FRET-peptide is doubly labeled with a fluorophore at each end—coumarin (the FRET donor) on one end and fluorescein (the FRET acceptor) on the other—and also contains a single phosphorylation site which either overlaps with or lies adjacent to the proteolytic site. B) In the secondary reaction, a site-specific protease recognizes and cleaves the non-phosphorylated FRET-peptide. Cleavage disrupts FRET between the donor and acceptor fluorophores on the FRET-peptide, whereas uncleaved, phosphorylated FRET-peptides maintain FRET. Kinases phosphorylated FRET-peptides cannot be cleaved by the protease. […] Cleavage disrupts FRET and causes a decrease in the fluorescein fluorescence signal and a strong increase in the coumarin fluorescence signal. Therefore the extension of the phosphprylation can be measured by FRET-signal remaining the protease reaction. The assay uses a ratiometric method, which calculates the ratio of donor emission to acceptor emission (the emission ratio) after excitation of the donor fluorophore at 400 nm, to quantitate reaction progress.
(§2) All compounds were systematically screened against ROCK1 and ROCK2.
Excerpt for ROCK2: as §1, §2

As usually defined, the IC50 is the point on the concentration scale where inhibition reaches its midpoint. In the case of `O=C(NCc1ccccc1)Nc1nc(-c2ccncc2)cs1` [Compound 1aa, 1-Benzyl-3-(4-(pyridin-4-yl)thiazol-2-yl)urea], the IC50 on ROCK1 was 0.15 µM and 0.17 µM; on ROCK2 it was 0.09 µM and 0.05 µM. For `O=C(NCc1ccc(Cl)cc1)Nc1nc(-c2ccncc2)cs1` [Compound 1ab, 1-(4-Chlorobenzyl)-3-(4-(pyridin-4-yl)thiazol-2-yl)urea], the IC50 came to 2.39 ± 0.53 µM at ROCK1 and 1.1 ± 0.16 µM at ROCK2. The matching figures for `O=C(NCc1ccccc1F)Nc1nc(-c2ccncc2)cs1` [Compound 1ac, 1-(2-Fluorobenzyl)-3-(4-(pyridin-4-yl)thiazol-2-yl)urea]: 0.4 ± 0.03 µM and 0.12 ± 0.01 µM. As to `COc1ccccc1CNC(=O)Nc1nc(-c2ccncc2)cs1` [Compound 1ad, 1-(2-Methoxybenzyl)-3-(4-(pyridin-4-yl)thiazol-2-yl)urea], the values for the IC50 at ROCK1 and on ROCK2 were 1.4 ± 0.11 µM and 0.47 ± 0.03 µM, respectively. Take `O=C(NCc1ccccc1Cl)Nc1nc(-c2ccncc2)cs1` [Compound 1ae, 1-(2-Chlorobenzyl)-3-(4-(pyridin-4-yl)thiazol-2-yl)urea]: the IC50 amounted to 0.34 ± 0.02 µM on ROCK1 and 0.11 ± 0.01 µM at ROCK2. Consider `COc1cccc(CNC(=O)Nc2nc(-c3ccncc3)cs2)c1` [Compound 1af, 1-(3-Methoxybenzyl)-3-(4-(pyridin-4-yl)thiazol-2-yl)urea], for which the concentration for half-maximal inhibition (IC50) on ROCK1 was 0.06 µM and 0.027 µM; at ROCK2 it was 0.01 µM and 0.011 µM. `COc1cccc(CNC(=O)Nc2nc(-c3ccncc3)cs2)c1` [Compound 1af-HCl, 1-(3-methoxybenzyl)-3-(4-(pyridin-4-yl)thiazol-2-yl)urea hydrochloride]: the IC50 at ROCK1 (hydrochloride) was found to be 0.023 ± 0.01 µM; on ROCK2 (hydrochloride) it was 0.014 ± 0.01 µM. In the case of `COc1cccc(CNC(=O)Nc2nc(-c3ccncc3)cs2)c1` [Compound 1af-Mes, 1-(3-methoxybenzyl)-3-(4-(pyridin-4-yl)thiazol-2-yl)urea methanesulfonate], the values for the IC50 on ROCK1 (methanesulfonate) and on ROCK2 (methanesulfonate) were 0.03 ± 0.01 µM and 0.01 µM, respectively. As to `O=C(NCc1ccc(Cl)cc1Cl)Nc1nc(-c2ccncc2)cs1` [Compound 1ag, 1-(2,4-Dichlorobenzyl)-3-(4-(pyridin-4-yl)thiazol-2-yl)urea], the IC50 stood at 1.88 ± 0.17 µM on ROCK1 and 0.4 ± 0.07 µM on ROCK2.

With `C[C@@H](NC(=O)Nc1nc(-c2ccncc2)cs1)c1ccccc1` [Compound 1ah, (R)-1-(1-Phenylethyl)-3-(4-(pyridin-4-yl)thiazol-2-yl)urea], the “fold more potent than parent compound 1aa” value at ROCK1 (comparator 1aa) is reported as 7 fold. The “fold more potent/active than its enantiomer” value at ROCK1 (comparator: enantiomer (1ai for 1ah, 1bf for 1be)) was found to be 215 fold. In addition, the IC50 was 0.043 µM and 0.019 µM on ROCK1; 0.012 ± 0.004 µM at ROCK2. `C[C@H](NC(=O)Nc1nc(-c2ccncc2)cs1)c1ccccc1` [Compound 1ai, (S)-1-(1-Phenylethyl)-3-(4-(pyridin-4-yl)thiazol-2-yl)urea]: the IC50 at ROCK1 was 3.56 µM and 3.29 µM; on ROCK2 it was 1.6 µM and 1.9 µM. For `O=C(NCc1cccc(F)c1)Nc1nc(-c2ccncc2)cs1` [Compound 1aj, 1-(3-Fluorobenzyl)-3-(4-(pyridin-4-yl)thiazol-2-yl)urea], the IC50 on ROCK1 is 0.14 µM and 0.1 µM; at ROCK2 it was 0.06 µM and 0.05 µM.

Regarding `O=C(NCc1ccco1)Nc1nc(-c2ccncc2)cs1` [Compound 1ak1, 1-(Furan-2-ylmethyl)-3-(4-(pyridin-4-yl)thiazol-2-yl)urea], the IC50 at ROCK1 worked out at 1.17 ± 0.15 µM; on ROCK2, 0.38 ± 0.03 µM. The matching figures for `O=C(NCc1ccc(F)cc1)Nc1nc(-c2ccncc2)cs1` [Compound 1ak, 1-(4-Fluorobenzyl)-3-(4-(pyridin-4-yl)thiazol-2-yl)urea]: 0.57 ± 0.05 µM and 0.19 µM.

With `COc1cccc(CNC(=O)N(C)c2nc(-c3ccncc3)cs2)c1` [Compound 1al, 3-(3-Methoxybenzyl)-1-methyl-1-(4-(pyridin-4-yl)thiazol-2-yl)urea], the values for the IC50 at ROCK1 and on ROCK2 were 0.06 ± 0.04 µM and 0.002 ± 0.0015 µM, respectively.

On to `COc1ccc(CNC(=O)Nc2nc(-c3ccncc3)cs2)cc1.Cl` [Compound 1am-HCl, 1-(4-methoxybenzyl)-3-(4-(pyridin-4-yl)thiazol-2-yl)urea hydrochloride], for which, at ROCK1 (50 μM compound), the “ROCK1 % inhibition @ 50 μM” value is listed as “ROCK1 % inhibition @ 50 μM: 15.26 ± 0.91”. Regarding `COc1ccc(CNC(=O)Nc2nc(-c3ccncc3)cs2)cc1` [Compound 1am-Mes, 1-(4-methoxybenzyl)-3-(4-(pyridin-4-yl)thiazol-2-yl)urea methanesulfonate], the IC50 on ROCK1 was determined as 36.2 ± 10 µM; on ROCK2, 7.42 ± 2.29 µM. Regarding `O=C(NCc1cccc(Cl)c1)Nc1nc(-c2ccncc2)cs1` [Compound 1an, 1-(3-Chlorobenzyl)-3-(4-(pyridin-4-yl)thiazol-2-yl)urea], the IC50 is 0.1 µM and 0.14 µM at ROCK1; 0.06 ± 0.01 µM on ROCK2. For `O=C(NCc1cccnc1)Nc1nc(-c2ccncc2)cs1` [Compound 1ao, 1-(Pyridin-3-ylmethyl)-3-(4-(pyridin-4-yl)thiazol-2-yl)urea], the results for the IC50 on ROCK1 and at ROCK2 were 0.91 ± 0.15 µM and 0.49 ± 0.07 µM, respectively. Consider `O=C(NCc1ccccn1)Nc1nc(-c2ccncc2)cs1` [Compound 1ap, 1-(Pyridin-2-ylmethyl)-3-(4-(pyridin-4-yl)thiazol-2-yl)urea], for which the IC50 on ROCK1 was determined as 1.82 ± 0.18 µM; on ROCK2 it was 1.44 ± 0.22 µM. In general, inhibition refers to the drop in the measured response relative to a control, in per cent. With `O=C(NCc1ccc([N+](=O)[O-])cc1)Nc1nc(-c2ccncc2)cs1` [Compound 1az, 1-(4-Nitrobenzyl)-3-(4-(pyridin-4-yl)thiazol-2-yl)urea], at ROCK1 (50 μM compound), the inhibition at 50 µM worked out at 34.5%.

For `COc1cc(CNC(=O)Nc2nc(-c3ccncc3)cs2)cc(OC)c1` [Compound 1bb, 1-(3,5-Dimethoxybenzyl)-3-(4-(pyridin-4-yl)thiazol-2-yl)urea], the inhibition at 50 µM on ROCK1 (50 μM compound) stood at 9.95%. Consider `COc1cccc([C@@H](C)NC(=O)Nc2nc(-c3ccncc3)cs2)c1` [Compound 1bh, (R)-1-(1-(3-Methoxyphenyl)ethyl)-3-(4-(pyridin-4-yl)thiazol-2-yl)urea], for which the IC50 on ROCK2 turned out to be 0.009 ± 0.007 µM. As to `O=C(NCc1cccc(O)c1)Nc1nc(-c2ccncc2)cs1` [Compound 1bo-HCl, 1-(3-hydroxybenzyl)-3-(4-(pyridin-4-yl)thiazol-2-yl)urea], the IC50 at ROCK1 was 0.009 µM. In the case of `O=C(NCc1cccc(OC(F)(F)F)c1)Nc1nc(-c2ccncc2)cs1` [Compound 1br, 1-(4-(Pyridin-4-yl)thiazol-2-yl)-3-(3-(trifluoromethoxy)benzyl)urea], the inhibition at 50 µM at ROCK1 (50 μM compound) was 7.48%. As for `COc1ccc([C@H](C)NC(=O)Nc2nc(-c3ccncc3)cs2)cc1` [Compound 1by, (S)-1-(1-(4-methoxyphenyl)ethyl)-3-(4-(pyridin-4-yl)thiazol-2-yl)urea], at ROCK1 (50 μM compound), the inhibition at 50 µM stood at 1.09%. For `C[C@H](NC(=O)Nc1nc(-c2ccncc2)cs1)c1cccc(Cl)c1` [Compound 1ce, (S)-1-(1-(3-chlorophenyl)ethyl)-3-(4-(pyridin-4-yl)thiazol-2-yl)urea], at ROCK1, the IC50 is above 50 µM. Take `O=C(NCc1cc(Cl)cc(Cl)c1)Nc1nc(-c2ccncc2)cs1` [Compound 1cg, 1-(3,5-dichlorobenzyl)-3-(4-(pyridin-4-yl)thiazol-2-yl)urea]: the inhibition at 50 µM on ROCK1 (50 μM compound) is -6.26%. As to `O=C(Nc1nc(-c2ccncc2)cs1)NC1Cc2ccccc2C1` [Compound 1cr, 1-(2,3-Dihydro-1H-inden-2-yl)-3-(4-(pyridin-4-yl)thiazol-2-yl)urea], at ROCK1 (50 μM compound), the inhibition at 50 µM came out at 40.9%.

Take `O=C(NCc1nc2ccccc2[nH]1)Nc1nc(-c2ccncc2)cs1` [Compound 1cs, 1-((1H-Benzo[d]imidazol-2-yl)methyl)-3-(4-(pyridin-4-yl)thiazol-2-yl)urea]: the inhibition at 50 µM at ROCK1 (50 μM compound) turned out to be 40.9%.

With `O=C(Nc1ccccc1)Nc1nc(-c2ccncc2)cs1` [Compound 6a, 1-Phenyl-3-(4-(pyridin-4-yl)thiazol-2-yl)urea], at ROCK1 (50 μM compound), the inhibition at 50 µM came to 10.4%. Regarding `O=C(Nc1nc(-c2ccncc2)cs1)Nc1ccc(F)cc1F` [Compound 6b, 1-(2,4-Difluorophenyl)-3-(4-(pyridin-4-yl)thiazol-2-yl)urea], on ROCK1 (50 μM compound), the inhibition at 50 µM turned out to be 14.5%.

For the compound `O=C(Nc1ccc(F)cc1)Nc1nc(-c2ccncc2)cs1` [Compound 6c, 1-(4-Fluorophenyl)-3-(4-(pyridin-4-yl)thiazol-2-yl)urea], the inhibition at 50 µM at ROCK1 (50 μM compound) is 8.06%. As for `O=C(Nc1nc(-c2ccncc2)cs1)Nc1ccccc1F` [Compound 6d, 1-(2-Fluorophenyl)-3-(4-(pyridin-4-yl)thiazol-2-yl)urea], at ROCK1 (50 μM compound), the inhibition at 50 µM was determined as 13.3%. As to `O=C(NC(=O)c1ccccc1)Nc1nc(-c2ccncc2)cs1` [Compound 8, N-(4-(Pyridin-4-yl)thiazol-2-ylcarbamoyl)benzamide], the inhibition at 50 µM at ROCK1 (50 μM compound) was determined as 16.3%. Consider `O=C(Nc1nc(-c2ccncc2)cs1)N1CCN(Cc2ccccc2)C[C@@H]1Cc1ccccc1` [Compound 12b, (S)-2,4-Dibenzyl-N-(4-(pyridin-4-yl)thiazol-2-yl)piperazine-1-carboxamide], for which the inhibition at 50 µM on ROCK1 (50 μM compound) is 24.3%.

With `O=C(Nc1nc(-c2ccncc2)cs1)N1CCN(C(=O)c2ccco2)CC1` [Compound 12c, 4-(Furan-2-carbonyl)-N-(4-(pyridin-4-yl)thiazol-2-yl)piperazine-1-carboxamide], the inhibition at 50 µM on ROCK1 (50 μM compound) amounted to 35%.

For the compound `O=C(Nc1nc(-c2ccncc2)cs1)N1CCN(c2ccncn2)CC1` [Compound 12d, N-(4-(Pyridin-4-yl)thiazol-2-yl)-4-(pyrimidin-4-yl)piperazine-1-carboxamide], the inhibition at 50 µM at ROCK1 (50 μM compound) was found to be 41.4%. In the case of `O=C(Nc1nc(-c2ccncc2)cs1)N1CCN(c2cccnc2)CC1` [Compound 12e, 4-(Pyridin-3-yl)-N-(4-(pyridin-4-yl)thiazol-2-yl)piperazine-1-carboxamide], the inhibition at 50 µM on ROCK1 (50 μM compound) stood at 14%. With `O=C(Nc1nc(-c2ccncc2)cs1)N1CCN(CC2CCCO2)CC1` (stereo not shown) [Compound 12f, N-(4-(Pyridin-4-yl)thiazol-2-yl)-4-((tetrahydrofuran-2-yl)methyl)piperazine-1-carboxamide], the inhibition at 50 µM at ROCK1 (50 μM compound) was -0.21%.
